Patent EP0888340B1, “4-(BENZO-1,3-DIOXOLYL)-PYRROLIDINE-3-CARBOXYLIC ACID DERIVATIVES AS ENDOTHELIN ANTAGONISTS” (Abbott Laboratories, priority 1996, dated 1997)

Molecular target: T1, ETB Receptor (Sus scrofa, UniProt P35463)
T1 construct: Porcine cerebellum was homogenized in 25 volumes (w/v) of 10 mM Hepes (pH 7.4); from tissue; host or cells: porcine cerebellum membranes
T1 sequence (P35463 27-443): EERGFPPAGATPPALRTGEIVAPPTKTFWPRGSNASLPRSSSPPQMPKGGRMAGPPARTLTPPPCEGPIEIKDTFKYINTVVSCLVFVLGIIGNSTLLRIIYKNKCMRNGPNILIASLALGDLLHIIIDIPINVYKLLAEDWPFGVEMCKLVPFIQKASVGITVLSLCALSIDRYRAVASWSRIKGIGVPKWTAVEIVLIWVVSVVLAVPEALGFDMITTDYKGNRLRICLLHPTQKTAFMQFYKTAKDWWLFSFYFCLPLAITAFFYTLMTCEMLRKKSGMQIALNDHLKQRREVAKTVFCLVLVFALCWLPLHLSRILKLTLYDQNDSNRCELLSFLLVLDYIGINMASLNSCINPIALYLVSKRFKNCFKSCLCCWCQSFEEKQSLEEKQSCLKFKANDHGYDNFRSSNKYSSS
Assay: ETB receptor binding assay: [125I]ET-3 binding to membranes
Conditions: test compound 1 µM; displacement of 0.1 nM [125I]ET-3; Porcine cerebellum membranes; 4 hours at 25 °C
Description: Preparation of membranes from Porcine cerebellum:
Porcine cerebellum was homogenized in 25 volumes (w/v) of 10 mM Hepes (pH 7.4) containing 0.25 M sucrose and protease inhibitors (3 mM EDTA, 0.1 mM PMSF, and 5 µg/ml Pepstatin A) by 3-10 sec polytron at 13,500 rpm with 10 sec intervals. The mixture was centrifuged at 1000xg for 10 min. The supernatant was collected and centrifuged at 30,000xg for 30 min. The precipitate was resuspended in Buffer A (20 mM Tris, 100 mM NaCl, 10 mM MgCl2, pH 7.4) containing the aforementioned protease inhibitors and centrifuged again. The final pellet was resuspended in Buffer A containing protease inhibitors and stored at -80°C until used. Protein content was determined by the Bio-Rad dye-binding protein assay.
[^125I]ET-3 binding to membranes:
Binding assays were performed in 96-well microtiter plates pretreated with 0.1% BSA. Membranes prepared from cells were diluted ∼100 fold in Buffer B (20 mM Tris, 100 mM NaCl, 10 mM MgCl2, pH 7.4, with 0.2% BSA, 0.1 mM PMSF, 5 µg/mL Pepstatin A, 0.025% bacitracin, and 3 mM EDTA) to a final concentration of 0.2 mg/mL of protein. In competition studies, membranes (0.02 mg) were incubated with 0.1 nM of [^125I]ET-3 in Buffer B (final volume: 0.2 mL) in the presence of increasing concentrations of unlabeled ET-3 or a test compound for 4 hours at 25 °C. After incubation, unbound ligands were separated from bound ligands by a vacuum filtration method using glass-fiber filter strips in PHD cell harvesters (Cambridge Technology, Inc., MA), followed by washing the filter strips with saline (1 mL) for three times. Nonspecific binding was determined in the presence of 1 µM ET-1. The per cent inhibition at a concentration of 1 µM is shown. […]

Compound	inhibition at 1 µM
CCc1cc(C)cc(CC)c1NC(=O)CN1C[C@H](c2ccc3c(c2)OCO3)[C@@H](C(=O)O)[C@@H]1c1ccc(OC)cc1 [Example 22, trans,trans-2-(4-methoxyphenyl)-4-(1,3-benzodioxol-5-yl)-1-((2,6-diethyl-4-methyl)phenylaminocarbonylmethyl)-pyrrolidine-3-carboxylic acid]	95.3%
CCOc1ccc([C@H]2[C@H](C(=O)O)[C@@H](c3ccc4c(c3)OCO4)CN2CC(=O)Nc2c(CC)cccc2CC)cc1 [Example 23, (2R,3R,4S)-2-(4-ethoxyphenyl)-4-(1,3-benzodioxol-5-yl)-1-((2,6-diethyl)phenylaminocarbonylmethyl)-pyrrolidine-3-carboxylic acid]	99.1%
CCc1cc(C(=O)O)cc(CC)c1NC(=O)CN1C[C@H](c2ccc3c(c2)OCO3)[C@@H](C(=O)O)[C@@H]1c1ccc(OC)cc1 [Example 24, trans,trans-2-(4-methoxyphenyl)-4-(1,3-benzodioxol-5-yl)-1-((4-carboxy-2,6-diethyl)phenylaminocarbonylmethyl)-pyrrolidine-3-carboxylic acid]	93.3%

Further lines, results first:

inhibition at 1 µM	Compound
95.7%	CCc1cc([N+](=O)[O-])cc(CC)c1NC(=O)CN1C[C@H](c2ccc3c(c2)OCO3)[C@@H](C(=O)O)[C@@H]1c1ccc(OC)cc1 [Example 25, trans,trans-2-(4-methoxyphenyl)-4-(1,3-benzodioxol-5-yl)-1-((4-nitro-2,6-diethyl)phenylaminocarbonylmethyl)-pyrrolidine-3-carboxylic acid]
98%	COc1ccc([C@H]2[C@H](C(=O)O)[C@@H](c3ccc4c(c3)OCO4)CN2CC(=O)Nc2c(C)cccc2C(C)C)cc1 [Example 26, trans,trans-2-(4-methoxyphenyl)-4-(1,3-benzodioxol-5-yl)-1-((2-isopropyl-6-methyl)phenylaminocarbonylmethyl)-pyrrolidine-3-carboxylic acid]
98.8%	CCc1cccc(OC)c1NC(=O)CN1C[C@H](c2ccc3c(c2)OCO3)[C@@H](C(=O)O)[C@@H]1c1ccc(OC)cc1 [Example 27, trans,trans-2-(4-Methoxyphenyl)-4-(1,3-benzodioxol-5-yl)-1-(N-(2-ethyl-6-methoxy)phenylaminocarbonylmethyl)-pyrrolidine-3-carboxylic acid]
